Values quoted from earlier work, collected in patent US20050266098A1, “Composition for treatment of a hydrofluoric acid burn” (priority 2004, published 2005).

What was measured:
hydrofluoric acid injury = conditions: soaks as source of calcium ions
[1] = 18° C.

SMILES | epidermal response resulting from the treatment (hydrofluoric acid injury) | pKa [1] | pH ([1]; 98% aqueous solution)
CC(=O)[O-].CC(=O)[O-].[Ca+2] [Calcium acetate] | negative epidermal response | – | –
CC(=O)CCC(=O)O [Levulinic acid] | – | 4.64 | 6.2
